# In patent US6838477B2, “Lactacystin analogs” (President and Fellows of Harvard College, priority 1995, dated 2005):
# “Also recorded” adds a separate entry of the source. Peptide text beside a SMILES is read from it. * marks the point of attachment. Cbz = O=C(OCc1ccccc1)*
# What was measured:
# [1] = biological target: T1, 20S proteasome chymotrypsin-like activity (Bos taurus, UniProt Q32KL2); assay: Kinetics of inhibition of 20S proteasome chymotrypsin-like activity (Suc-LLVY-AMC); type: biochemical, bovine; details: for κassoc = κobs/[I], Chymotrypsin-like activity (Suc-LLVY-AMC): 25° C.
# T1 construct: from tissue; host or cells: bovine brain
# Description: (§1) Experiments involving the proteasome were performed as follows: 20S proteasome (˜5 ng/μl) in 10 mM Tris-HCl, pH 7.5, 1 mM EDTA was incubated at 25° C. in the presence of lactacystin or lactacystin analogs in DMSO or MeOH [not exceeding 5% (v/v)]. Aliquots for fluorescence assay were removed at various times following addition of compound and diluted in 10 mM Tris-HCl, pH 7.5, 1 mM EDTA containing fluorogenic peptide substrates (100 μM final). Suc-LLVY-AMC, Cbz-GGR-βNA and […] (AMC=7-amido-4-methylcoumarin; βNA=β-naphthylamide) were used to assay for the chymotrypsin-like, trypsin-like and peptidylglutamyl-peptide hydrolyzing activities, respectively.
# (§2) Fluorescent emission at 460 nm with excitation at 380 nm was measured for AMC-containing substrates, and emission at 410 nm with excitation at 335 nm was measured for βNA-containing substrates. The fluorescence assays were conducted at 25° C., each experiment was performed at least three times, and values represent mean±standard deviation.
# (§3) The reversibility of the inhibitory effects was assessed by measuring residual peptidase activity after removal of excess inhibitor by extensive serial dilution/ultrafiltration.
# [2] = biological target: T2, Papain (Carica papaya, UniProt P00784); assay: Selectivity of protease inhibition: papain; type: biochemical
# T2 sequence (P00784 134-345): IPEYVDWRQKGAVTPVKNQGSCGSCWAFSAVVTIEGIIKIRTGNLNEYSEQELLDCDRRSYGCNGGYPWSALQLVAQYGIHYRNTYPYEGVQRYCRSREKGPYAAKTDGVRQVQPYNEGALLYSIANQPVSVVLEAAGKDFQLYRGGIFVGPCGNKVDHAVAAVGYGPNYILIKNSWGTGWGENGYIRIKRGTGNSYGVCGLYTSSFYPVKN
# [3] = biological target: T3, 20S proteasome trypsin-like activity (Bos taurus, UniProt Q2TBP0); assay: Kinetics of inhibition of 20S proteasome trypsin-like activity (Cbz-GGR-βNA); type: biochemical, bovine
# T3 construct: from tissue; host or cells: bovine brain
# Description: as §1, §2, §3
# [4] = biological target: Cathepsin B (Homo sapiens, UniProt P07858); assay: Selectivity of protease inhibition: cathepsin B; type: biochemical
# [5] = biological target: α-Chymotrypsin (Bos taurus, UniProt P00766, DEL14-15/DEL147-148); assay: Selectivity of protease inhibition: α-chymotrypsin; type: biochemical
# [6] = biological target: T4, Calpain I (Homo sapiens, UniProt P07384); assay: Selectivity of protease inhibition: calpain I; type: biochemical
# T4 sequence (P07384 1-714): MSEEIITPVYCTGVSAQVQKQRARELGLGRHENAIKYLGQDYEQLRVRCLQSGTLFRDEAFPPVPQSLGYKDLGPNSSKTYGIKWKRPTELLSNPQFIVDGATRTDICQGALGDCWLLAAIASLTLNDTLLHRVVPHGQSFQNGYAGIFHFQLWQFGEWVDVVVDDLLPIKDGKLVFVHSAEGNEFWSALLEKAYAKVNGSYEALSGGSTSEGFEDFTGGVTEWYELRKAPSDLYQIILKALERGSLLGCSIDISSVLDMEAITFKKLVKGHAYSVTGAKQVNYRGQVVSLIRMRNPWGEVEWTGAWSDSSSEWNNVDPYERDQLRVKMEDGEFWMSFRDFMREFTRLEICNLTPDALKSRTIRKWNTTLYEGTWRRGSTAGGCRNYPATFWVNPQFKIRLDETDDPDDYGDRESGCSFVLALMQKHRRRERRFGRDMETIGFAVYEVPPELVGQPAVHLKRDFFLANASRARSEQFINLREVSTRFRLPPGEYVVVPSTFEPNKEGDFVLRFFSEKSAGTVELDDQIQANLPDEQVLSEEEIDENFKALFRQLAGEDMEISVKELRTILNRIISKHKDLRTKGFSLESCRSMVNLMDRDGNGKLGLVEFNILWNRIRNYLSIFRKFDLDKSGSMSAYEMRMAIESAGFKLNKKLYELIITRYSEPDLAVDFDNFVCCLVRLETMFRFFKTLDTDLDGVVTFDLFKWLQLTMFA
# T4 sequence (P04632 1-268 partner): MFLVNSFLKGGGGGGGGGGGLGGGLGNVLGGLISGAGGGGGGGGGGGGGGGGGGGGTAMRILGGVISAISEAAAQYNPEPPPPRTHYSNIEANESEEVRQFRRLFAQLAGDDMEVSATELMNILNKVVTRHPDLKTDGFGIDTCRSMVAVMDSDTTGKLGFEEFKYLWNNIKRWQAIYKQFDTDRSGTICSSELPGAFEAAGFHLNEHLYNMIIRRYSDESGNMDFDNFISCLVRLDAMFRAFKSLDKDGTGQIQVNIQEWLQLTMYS
# [7] = biological target: T5, Trypsin (Bos taurus, UniProt P00760); assay: Selectivity of protease inhibition: trypsin; type: biochemical
# T5 construct: gene PRSS1
# T5 sequence (P00760 24-246): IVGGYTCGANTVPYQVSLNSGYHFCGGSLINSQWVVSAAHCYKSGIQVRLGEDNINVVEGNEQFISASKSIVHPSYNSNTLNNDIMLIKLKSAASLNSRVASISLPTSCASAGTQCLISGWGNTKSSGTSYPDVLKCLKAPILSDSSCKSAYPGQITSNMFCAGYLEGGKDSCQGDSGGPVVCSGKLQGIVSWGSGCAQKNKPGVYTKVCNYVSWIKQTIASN
# [8] = biological target: 20S proteasome peptidylglutamyl-peptide hydrolyzing activity (Bos taurus, UniProt Q3MHN0)
# Description: as §1, §2, §3
# [9] = biological target: T6, Calpain II (Homo sapiens, UniProt P17655); assay: Selectivity of protease inhibition: calpain II; type: biochemical
# T6 sequence (P17655 1-700): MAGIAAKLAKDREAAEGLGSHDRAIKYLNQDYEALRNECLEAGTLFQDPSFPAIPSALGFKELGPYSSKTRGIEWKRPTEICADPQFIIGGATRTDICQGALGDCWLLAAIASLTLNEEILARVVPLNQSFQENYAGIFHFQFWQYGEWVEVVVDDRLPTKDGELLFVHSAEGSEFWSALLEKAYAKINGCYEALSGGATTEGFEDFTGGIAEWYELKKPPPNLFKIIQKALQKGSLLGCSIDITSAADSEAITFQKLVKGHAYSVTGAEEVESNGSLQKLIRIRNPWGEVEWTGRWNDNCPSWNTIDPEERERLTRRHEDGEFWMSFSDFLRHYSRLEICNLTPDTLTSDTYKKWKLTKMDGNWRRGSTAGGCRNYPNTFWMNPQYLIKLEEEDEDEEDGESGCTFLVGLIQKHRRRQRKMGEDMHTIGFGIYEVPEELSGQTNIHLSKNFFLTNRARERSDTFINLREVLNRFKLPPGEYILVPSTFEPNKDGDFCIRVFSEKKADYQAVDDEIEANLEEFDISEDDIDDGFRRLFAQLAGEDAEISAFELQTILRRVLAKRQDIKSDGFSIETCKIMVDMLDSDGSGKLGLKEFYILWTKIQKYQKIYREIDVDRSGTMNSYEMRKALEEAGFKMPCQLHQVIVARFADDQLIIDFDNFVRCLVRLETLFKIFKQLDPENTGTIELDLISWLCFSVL
# T6 sequence (P04632 1-268 partner): T4 sequence (P04632 1-268 partner)
# [10] = test system: PC12 cells; details: Tsubuki et al. 1993; cited from earlier work
# [11] = test system: IκB-α; assay: TNF-α dependent degradation of IκB-α in Hela cells (immunoblot); type: cell-based, human; details: 40 μM, 1 h pretreatment, 1,000 U/ml TNF-α
# Description: Hela cells were plated onto 6-well plates in DME plus 10% fetal calf serum (3 mls/well). Cells were then pretreated with 0.125% DMSO 40 μM […] (carbobenzoxyl-leucinyl-leucinyl-leucinal-H)(40 μM, lanes 103), or 5 μM β-lactone for one hour, followed by treatment with 1,000 U/ml TNF-α or phosphate buffered saline (PBS). Cells were harvested after 0 min, 20 min, or 40 min of further incubation at 37° C. Cells were then lysed in buffer containing NP-40 and protease inhibitors, and the proteins separated on a 10% SDS-polyacrylamide gel. The proteins were then transferred to nitrocellulose and probed with antibodies against the C-terminal 20 amino acids of human IκB-α.
# [12] = test system: p105 to p50 processing; assay: Proteasome dependent p105 to p50 processing in transfected COS cells (pulse-chase); type: cell-based, African green monkey; details: 50 μM, 1 h pretreatment, 2 hour chase
# Description: COS cells were plated onto 100 mm dishes, then, with DEAE-Destran, either mock transfected, or transfected with 3 μg of pcDNA plasmid containing the human p105 cDNA. Forty-eight hrs after transfection, cells were pretreated for 1 hour with 0.5% DMSO, 50 μM calpain inhibitor II, 50 μM MG132, or 10 μM β-lactone. Cells were then pulse labelled with 250 uCi/plate of ^35S-methionine/cysteine for 15 minutes, and either harvested immediately or followed by a 2 hour chase with excess unlabelled methionine and cysteine. Cells were then lysed with SDS/Tris, and proteins were immunoprecipitated with anti-p50 antibodies (recognize the N-terminal half of the p105 protein). These proteins were then separated on a 10% SDS-polyacrylamide gel, which was then fixed, dried, and exposed to autoradiographic film.
# [13] = biological target: T7, 20S proteasome (Bos taurus, UniProt Q2TBP0+Q32KL2); assay: Labeling of 20S proteasome subunits by tritiated compound, reverse-phase HPLC separation; type: binding, bovine
# T7 construct: from tissue; host or cells: bovine brain
# Description: This peak was isolated and treated with 10 μM [^3H]lactacystin or 10 μM [^3H]β-lactone for 24 h at 25° C. Trifluoroacetic acid (TFA) was added to 0.1%, and the sample was allowed to stand at room temperature for 20 min. Reverse-phase HPLC was then carried out at room temperature using a Vydac C4 column (300 Å/4.6×150 mm) with 20-40% acetonitrile/0.1% TFA over 10 min and then 40-55% acetonitrile/0.1% TFA over 30 min (flow rate=0.8 ml/min). An IN/US β-RAM in-line scintillation detector was used to monitor radioactivity.
# [14] = residual activity after removal of excess inhibitor by serial dilution/ultrafiltration
# [15] = relative to kassoc for chymotrypsin-like activity
molecule,measurement,setting,value
6-deoxylactacystin,"κassoc = κobs/[I], Chymotrypsin-like activity (Suc-LLVY-AMC)",[1]; compound 12.5 μM,No inhibition
"CC(=O)NC(CSC(=O)C1(C(O)C(C)C)NC(=O)C(C)C1O)C(=O)O [(6R,7S)Lactacystin (6-epi,7-epi), (6R,7S)-lactacystin]","κassoc = κobs/[I], Chymotrypsin-like activity (Suc-LLVY-AMC)",[1]; compound 12.5 μM,No inhibition
"CC(=O)N[C@@H](CSC(=O)[C@]1([C@@H](O)C(C)C)NC(=O)[C@H](C)[C@@H]1O)C(=O)O [Lactacystin, lactacystin]",Effect of lactacystin (100 μM) on Papain,"[2]; 100 μM, Cbz-RR-AMC, 25° C.",No inhibition
same,inhibition of papain activity,[2]; concentration not given,do not inhibit
same,"κassoc = κobs/[I], Chymotrypsin-like activity (Suc-LLVY-AMC)",[1]; compound 10 μM,194 ± 15 s^−1M^−1
same,kinact/KI,"[1]; read-out: kassoc, apparent second-order rate constant for association, chymotrypsin-like activity",194 ± 15 M⁻¹ s⁻¹
same,reversibility of inhibition of chymotrypsin-like activity,[1]; [14],irreversibly; also recorded: still completely inhibited
same,"κassoc = κobs/[I], Trypsin-like activity (Cbz-GGR-βNA)","[3]; compound 10 μM, 25° C.",10.1 ± 1.8 s^−1M^−1
same,trypsin-like activity inhibited more slowly than chymotrypsin-like activity,[3]; [15],20 fold
same,reversibility of inhibition of trypsin-like activity,[3]; [14],irreversibly; also recorded: still completely inhibited
same,Effect of lactacystin (100 μM) on Cathepsin B,"[4]; 100 μM, Cbz-RR-AMC, 25° C.",No inhibition
same,inhibition of cathepsin activity,[4]; concentration not given,do not inhibit
same,Effect of lactacystin (100 μM) on α-Chymotrypsin,"[5]; 100 μM, Suc-LLVY-AMC, 25° C.",No inhibition
same,inhibition of α-chymotrypsin activity,[5]; concentration not given,do not inhibit
same,Effect of lactacystin (100 μM) on Calpain I,"[6]; 100 μM, Suc-LLVY-AMC, 25° C.",No inhibition
same,inhibition of calpain I activity,[6]; concentration not given,do not inhibit
same,Effect of lactacystin (100 μM) on Trypsin,"[7]; 100 μM, Cbz-GGR-βNA, 25° C.",No inhibition
same,inhibition of trypsin activity,[7]; concentration not given,do not inhibit
same,"κassoc = κobs/[I], Peptidylglutamyl-peptide hydrolyzing activity (Cbz-LLE-βNA)","[8]; compound 100 μM, 25° C.",4.2 ± 0.6 s^−1M^−1
same,PGPH activity inhibited more slowly than chymotrypsin-like activity,[8]; [15],50 fold
same,reversibility of inhibition of PGPH activity,[8]; [14],reversibly; also recorded: return of the catalytic activity
same,Effect of lactacystin (100 μM) on Calpain II,"[9]; 100 μM, Suc-LLVY-AMC, 25° C.",No inhibition
same,inhibition of calpain II activity,[9]; concentration not given,do not inhibit
"CC(C)C[C@@H](C=O)NC(=O)[C@H](CC(C)C)NC(=O)[C@H](CC(C)C)NC(=O)OCc1ccccc1 [MG132, carbobenzoxyl-leucinyl-leucinyl-leucinal-H] (Cbz-Leu-Leu-Leu-aldehyde)",optimal concentration for inducing neurite outgrowth,[10],30 nM
same,degradation of IκB after TNF induction,[11],blocks the degradation
same,phosphorylated form of IκB,[11],stabilizes the phosphorylated form
same,processing of p105 to p50 (appearance of p50),[12],completely blocks the appearance of p50
CC(=O)N[C@@H](CSC(=O)[C@]1([C@@H](O)C(C)C)NC(=O)[C@H](C)[C@@H]1O)C(=O)O [[^3H]lactacystin],association of radioactivity with HPLC-separated proteasome subunit peaks,"[13]; 10 μM, 24 h at 25° C., first peak ~32 kDa (α chain), second peak ~24 kDa (X/MB1)",exclusively with the first two peaks
same,labeling of the first peak (~32 kDa protein),[13]; 24 hour reaction,significant labeling
CSCC[C@@H](C=O)NC(=O)[C@H](CC(C)C)NC(=O)[C@H](CC(C)C)NC(C)=O [calpain inhibitor II] (Ac-Leu-Leu-Met-aldehyde),processing of p105 to p50 (appearance of p50),[12],no effect
